Laboratory results published in patent US20080177220A1, “Ultrasound-Mediated Transcleral Drug Delivery” (THE CURATORS OF THE UNIVERSITY OF MISSOURI, priority 2006, published 2008).

Experiments:
[1] = Diffusion of Sodium Fluorescein formulation across Cellu-Por synthetic membrane simulating ocular tissue, with or without ultrasound; format: in vitro ADME; details: ultrasound applied concurrently during application of the formulation, FIG. 3
Excerpt: The control results 302 display the effect of allowing the formulation to diffuse naturally, while the ultrasound results 304 display the effect of applying ultrasound concurrently during application of the formulation.

[2] = Diffusion of Sodium Fluorescein formulation through RCS tissue in a Franz diffusion cell at different ultrasound standoff distances; format: in vitro ADME, New Zealand albino rabbits; details: treat far, 1.00±0.01 cm standoff distance, versus 0.50±0.01 cm (treat near) / control without ultrasound, rabbit RCS tissue, FIG. 4
Excerpt: By using a standoff distance 136, drug transport can be optimized. A standoff distance is desired to optimize the cavitation effects in the Fraunhofer zone of the ultrasonic energy field. […] The control results 402 represent normal diffusion action of the formulation in the absence of ultrasound. The treat near results 404 represent diffusion of the formulation achieved using a 0.50±0.01 cm standoff distance. The treat far results 406 represent diffusion of the formulation achieved using a 1.00±0.01 cm standoff distance. […] The optimum standoff distance can vary depending on a number of factors, such as, for example, the coupling media, the transducer configuration, the targeted tissue, and the pharmaceutical formulation being administered. The optimum standoff distance for transcleral drug delivery differs from drug delivery attempted through the cornea due to the numerous factors discussed above, including inherent tissue differences and transport phenomena occurring in the blood-retina barrier.

Structure (SMILES): O=C([O-])c1ccccc1-c1c2ccc(=O)cc-2oc2cc([O-])ccc12.[Na+].[Na+] [Sodium Fluorescein]
- permeability with ultrasonic waves versus control (natural diffusion) [1]: substantially higher
- permeability increase using the greater standoff distance [2]: approximately 30 times higher
